Measured values from US6562335B1, “NK-1 receptor antagonists for prevention of neurogenic inflammation in gene therapy” (Pfizer, Inc., priority 1995, dated 2003).

Target: T1, substance P (NK-1) receptor (Rattus norvegicus, UniProt P14600)
T1 construct: from tissue; host or cells: living Fischer F344 rats; read-out in trachea and main stem bronchi
Assay: Capsaicin-induced Evans blue extravasation in airways of rats inoculated endotracheally with Ad5CMVLacZ
Type: in vivo
Conditions: Fischer F344 rats inoculated with Ad5CMVLacZ, 5 days after inoculation; pretreatment 4 mg/kg i.v., n=5; p>0.05 vs vector without pretreatment
Method: Pathogen-free Fischer F344 male rats (220-287 grams in weight, 12-14 weeks of age), under sodium pentobarotal anesthesia, received a localized endotracheal inoculation with 100 μL cf phosphate-buffered saline (PBS) containing 3×10^12 particles/mL of Ad5CMVLacZ, an adenovirus type 5 vector defective in the E1 and E3 regions of the viral genome and containing the LacZ transgene under the control of the CMV (cytomegalo virus) immediate early promoter. A control group of rats was inoculated with sterile PBS.
Five minutes after pretreatment, Evans blue dye (30 mg/kg i.v.) was injected into all the rats to measure the increase in vascular permeability associated with the neurogenic inflammation. Capsaicin (75 mg/kg i.v. over 2 min) was injected immediately after Evans blue to stimulate the sensory nerves in the airway mucosa. Five minutes after capsaicin, the rats were perfused through the heart with 100 mL of PBS. The trachea and main stem bronchi were removed and incubated in formamide (18 hours at 50° C.) to extract the extravasated tracer. The magnitude of the Evans blue extravasation was determined by spectrophotometric measurements of the optical density of formamide extracts.

T1 sequence (P14600 whole entry): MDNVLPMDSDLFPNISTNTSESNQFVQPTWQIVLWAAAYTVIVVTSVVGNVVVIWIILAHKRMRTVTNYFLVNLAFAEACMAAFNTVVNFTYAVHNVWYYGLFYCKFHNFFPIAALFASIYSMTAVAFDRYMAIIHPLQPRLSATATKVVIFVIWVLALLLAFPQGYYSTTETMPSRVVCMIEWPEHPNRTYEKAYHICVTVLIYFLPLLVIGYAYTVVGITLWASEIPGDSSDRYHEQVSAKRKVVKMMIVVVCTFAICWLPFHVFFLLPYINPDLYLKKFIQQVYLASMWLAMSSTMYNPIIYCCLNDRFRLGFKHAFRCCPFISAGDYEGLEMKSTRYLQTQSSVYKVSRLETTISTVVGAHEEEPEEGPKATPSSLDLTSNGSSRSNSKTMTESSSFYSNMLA

## COc1ccccc1CN[C@@H]1CCCN[C@@H]1c1ccccc1 [compound B, (2R,3R)-2-phenyl-3-[(2-methoxyphenyl)methylamino]piperidine]
  extravasation of Evans blue produced by capsaicin (trachea and main stem bronchi), mean ±SEM: 88.3 ± 5.8 ng/mg
